Measurements published in PMC7587356, “High-Throughput Screening for Inhibitors of the SARS-CoV-2 Protease Using a FRET-Biosensor” (Molecules, 2020).
Structures can show the parent of a compound that is named as a salt. Where two headings read alike, the source gives them in different places.

Biological target: SARS-CoV-2 3CLpro (Severe acute respiratory syndrome coronavirus 2, UniProt P0DTD1)
Experiment: biochemical
Format: biochemical
Design: Replicate_1 / Replicate_2 / mean / mean (LOPAC_screen_w_protease): unit not given here
Settings: for inhibition at 5 µM: 4 h
[1] = sheet LOPAC_screen_w_protease, primary screen with protease, 5 µM, mean of two replicates
[2] = sheet LOPAC_screen_w_protease, primary screen with protease, 5 µM, replicate 1
[3] = sheet LOPAC_screen_w_protease, primary screen with protease, 5 µM, replicate 2
[4] = sheet LOPAC_screen_w_protease, LOPAC1280 at 5 µM, mean of two replicates
[5] = sheet LOPAC_screen_w_protease, LOPAC1280 at 5 µM, replicate 1
[6] = sheet LOPAC_screen_w_protease, LOPAC1280 at 5 µM, replicate 2
[7] = sheet LOPAC_screen_w_protease, LOPAC1280 primary screen with protease, 5 µM compound, mean of the two replicates, read-out: mean
[8] = sheet LOPAC_screen_w_protease, LOPAC1280 primary screen with protease, 5 µM compound, replicate 1, read-out: Replicate_1
[9] = sheet LOPAC_screen_w_protease, LOPAC1280 primary screen with protease, 5 µM compound, replicate 2, read-out: Replicate_2
[10] = LOPAC1280 primary screen with protease, 5 µM compound, replicate 1, read-out: Replicate_1 (LOPAC_screen_w_protease)
[11] = LOPAC1280 primary screen with protease, 5 µM compound, replicate 2, read-out: Replicate_2 (LOPAC_screen_w_protease)
[12] = LOPAC1280 primary screen with protease, 5 µM compound, mean of the two replicates
[13] = sheet LOPAC_screen_w_protease, LOPAC1280 primary screen at 5 µM, with protease, mean of the two replicates
[14] = sheet LOPAC_screen_w_protease, LOPAC1280 primary screen at 5 µM, with protease, replicate 1
[15] = sheet LOPAC_screen_w_protease, LOPAC1280 primary screen at 5 µM, with protease, replicate 2
[16] = sheet LOPAC_screen_w_protease, primary screen of LOPAC1280 at 5 µM with protease, mean of the two replicates, read-out: mean
[17] = sheet LOPAC_screen_w_protease, primary screen of LOPAC1280 at 5 µM with protease, replicate 1, read-out: Replicate_1
[18] = sheet LOPAC_screen_w_protease, primary screen of LOPAC1280 at 5 µM with protease, replicate 2, read-out: Replicate_2
[19] = sheet LOPAC_screen_w_protease, primary screen with protease, compound at 5 µM, mean of two replicates
[20] = sheet LOPAC_screen_w_protease, primary screen with protease, compound at 5 µM, replicate 1
[21] = sheet LOPAC_screen_w_protease, primary screen with protease, compound at 5 µM, replicate 2
[22] = sheet LOPAC_screen_w_protease, primary screen with protease, 5 µM, mean of two replicates, read-out: mean
[23] = sheet LOPAC_screen_w_protease, primary screen with protease, 5 µM, replicate 1, read-out: Replicate_1
[24] = sheet LOPAC_screen_w_protease, primary screen with protease, 5 µM, replicate 2, read-out: Replicate_2

CCN(CC)CC.Nc1ncnc2c1ncn2C1OC2COP(O)(=S)O[C@@H]2[C@@H]1O (stereo partly drawn) [Rp-cAMPS triethylamine]
Replicate_1: 2.931 | Replicate_2: 3.042 | mean: 2.9867

COC(=O)c1c(C)[nH]c(C)c1C(=O)c1ccccc1Cc1ccccc1 [FPL 64176]
mean [1]: 0.1984 | Replicate_1 [2]: 1.679 | Replicate_2 [3]: -1.282

CC(N)(Cc1ccc(O)cc1)C(=O)O (racemic) [DL-alpha-Methyl-p-tyrosine]
mean [4]: 1.1698 | Replicate_1 [5]: 0.7226 | Replicate_2 [6]: 1.617

Cc1nc(N=Nc2ccc(S(=O)(=O)O)cc2S(=O)(=O)O)c(COP(=O)(O)O)c(C=O)c1O [PPADS]
mean [1]: 0.05886 | Replicate_1 [2]: -0.6012 | Replicate_2 [3]: 0.7189

CC[C@]1(O)C[C@@H]2CN(CCc3c([nH]c4ccccc34)[C@@](C(=O)OC)(c3cc4c(cc3OC)N(C)[C@H]3[C@@](O)(C(=O)OC)[C@H](OC(C)=O)[C@]5(CC)C=CCN6CC[C@]43[C@@H]65)C2)C1.O=S(=O)(O)O [Vinblastine sulfate salt]
mean [1]: 0.3705 | Replicate_1 [2]: 2.018 | Replicate_2 [3]: -1.277

CCN(CC)CC#CCOC(=O)C(O)(c1ccccc1)C1CCCCC1 (stereo not drawn) [Oxybutynin Chloride]
inhibition at 5 µM [7]: 4.78% | inhibition at 5 µM [8]: 4.91% | inhibition at 5 µM [9]: 4.65%

NCCCC(=O)O [GABA]
mean (LOPAC_screen_w_protease) (LOPAC1280 primary screen with protease, 5 µM compound, mean of two replicates): 1.638 | Replicate_1 (LOPAC_screen_w_protease) (LOPAC1280 primary screen with protease, 5 µM compound, replicate 1): 1.648 | Replicate_2 (LOPAC_screen_w_protease) (LOPAC1280 primary screen with protease, 5 µM compound, replicate 2): 1.628

NNCc1cccc(O)c1 [3-Hydroxybenzylhydrazine dihydrochloride]
inhibition at 5 µM [10]: 3.31% | inhibition at 5 µM [11]: 0.839% | mean (LOPAC_screen_w_protease) [12]: 2.074

Cn1cc(C(=O)OCC2CCN(CCNS(C)(=O)=O)CC2)c2ccccc21 [GR 113808]
mean [4]: 1.128 | Replicate_1 [5]: 1.417 | Replicate_2 [6]: 0.838

Br.Br.N=C(N)SCCc1ccc(CCSC(=N)N)cc1 [1,4-PBIT dihydrobromide]
mean [13]: 0.7618 | Replicate_1 [14]: 0.8182 | Replicate_2 [15]: 0.7055

C=CCN1CC[C@]23c4c5ccc(O)c4O[C@H]2C(=O)CC[C@@]3(O)[C@H]1C5 [Naloxone hydrochloride]
inhibition at 5 µM [16]: 4% | inhibition at 5 µM [17]: 3.91% | inhibition at 5 µM [18]: 4.09%

CC(C)C1C2CCC(C2)C1N.Cl (stereo not drawn) [AGN 192403 hydrochloride]
mean [19]: 2.735 | Replicate_1 [20]: 2.811 | Replicate_2 [21]: 2.66

CC(C)C[C@H](NC(=O)[C@H](O)[C@H](N)Cc1ccccc1)C(=O)O [Epibestatin hydrochloride]
inhibition at 5 µM [10]: 1.71% | inhibition at 5 µM [11]: 2.3% | mean (LOPAC_screen_w_protease) [12]: 2.008

CN1C2CCC1CC(OC(=O)c1c[nH]c3ccccc13)C2.Cl (stereo not drawn)
mean [13]: 0.5358 | Replicate_1 [14]: 1.053 | Replicate_2 [15]: 0.01899

CC[C@H](C)[C@H]1O[C@]2(CC[C@@H]1C)C[C@@H]1C[C@@H](C/C=C(\C)[C@@H](O[C@H]3C[C@H](OC)[C@@H](O[C@H]4C[C@H](OC)[C@@H](O)[C@H](C)O4)[C@H](C)O3)[C@@H](C)/C=C/C=C3\CO[C@@H]4[C@H](O)C(C)=C[C@@H](C(=O)O1)[C@]34O)O2 [Ivermectin]
mean [19]: 2.889 | Replicate_1 [20]: 2.826 | Replicate_2 [21]: 2.952

O=C1Cc2c([nH]c3ccc(Br)cc23)-c2ccccc2N1 [Kenpaullone]
inhibition at 5 µM (read-out: Replicate_1): 1.52% | inhibition at 5 µM (read-out: Replicate_2): 3.46% | inhibition at 5 µM (read-out: mean): 2.49%

CCOC(=O)C1=C(C)NC(=S)NC1c1cccc(O)c1 (stereo not drawn) [Monastrol]
inhibition at 5 µM [7]: 6.04% | inhibition at 5 µM [8]: 5.54% | inhibition at 5 µM [9]: 6.55%

COc1cc2c(cc1OC)-c1c/c(=N\c3c(C)cc(C)cc3C)n(C)c(=O)n1CC2 [Trequinsin hydrochloride]
inhibition at 5 µM [10]: 1.97% | inhibition at 5 µM [11]: 2% | mean (LOPAC_screen_w_protease) [12]: 1.986

COC1=C(OC)C(=O)c2ccccc2C1=O [2,3-Dimethoxy-1,4-naphthoquinone]
mean [13]: 0.8524 | Replicate_1 [14]: 0.1505 | Replicate_2 [15]: 1.554

CN(C)c1ccc(O)c2c1C[C@H]1C[C@H]3[C@H](N(C)C)C(O)=C(C(N)=O)C(=O)[C@@]3(O)C(O)=C1C2=O [Minocycline hydrochloride]
inhibition at 5 µM [7]: 5.31% | inhibition at 5 µM [8]: 4.79% | inhibition at 5 µM [9]: 5.84%

S=C(Nc1ccccc1)Nc1nccs1 [1-Phenyl-3-(2-thiazolyl)-2-thiourea]
mean (LOPAC screen with protease) (sheet LOPAC_screen_w_protease, primary screen at 5 µM, mean of two replicates): 7.407 | Replicate_1 (LOPAC screen with protease) (sheet LOPAC_screen_w_protease, primary screen at 5 µM, replicate 1): 6.341 | Replicate_2 (LOPAC screen with protease) (sheet LOPAC_screen_w_protease, primary screen at 5 µM, replicate 2): 8.4724

N[C@@H](Cn1ccc(=O)[nH]c1=O)C(=O)O [S(-)-Willardiine]
mean [13]: 0.8515 | Replicate_1 [14]: 0.8129 | Replicate_2 [15]: 0.89

O=C(O)Cc1ccccc1Nc1c(Cl)cccc1Cl [Diclofenac sodium]
mean (LOPAC_screen_w_protease): 1.426 | inhibition at 5 µM (read-out: Replicate_1 (LOPAC_screen_w_protease)): 3.59% | inhibition at 5 µM (read-out: Replicate_2 (LOPAC_screen_w_protease)): -0.743%

CC1=C[C@@H]2c3cccc4[nH]cc(c34)C[C@H]2N(C)C1 [Agroclavine]
inhibition at 5 µM [16]: 3.47% | inhibition at 5 µM [17]: 3.6% | inhibition at 5 µM [18]: 3.34%

Cc1c2ccncc2c(C)c2c1[nH]c1ccccc12 [Ellipticine]
inhibition at 5 µM (sheet LOPAC_screen_w_protease, primary screen with protease, mean of two replicates, read-out: mean): 2.32% | inhibition at 5 µM (sheet LOPAC_screen_w_protease, primary screen with protease, replicate 1, read-out: Replicate_1): 4.78% | inhibition at 5 µM (sheet LOPAC_screen_w_protease, primary screen with protease, replicate 2, read-out: Replicate_2): -0.147%

Oc1ccc(Cn2cc[nH]c2=S)cc1 [1-(4-Hydroxybenzyl)imidazole-2-thiol]
inhibition at 5 µM (sheet LOPAC_screen_w_protease, primary screen at 5 µM, mean of two replicates, read-out: mean (LOPAC screen with protease)): 35.7% | inhibition at 5 µM (sheet LOPAC_screen_w_protease, primary screen at 5 µM, replicate 1, read-out: Replicate_1 (LOPAC screen with protease)): 39.5% | inhibition at 5 µM (sheet LOPAC_screen_w_protease, primary screen at 5 µM, replicate 2, read-out: Replicate_2 (LOPAC screen with protease)): 31.9%

Nc1nc(N)c2nc(-c3ccccc3)c(N)nc2n1 [Triamterene]
inhibition at 5 µM [22]: -0.222% | inhibition at 5 µM [23]: 2.19% | inhibition at 5 µM [24]: -2.63%

NC(=O)NO [Hydroxyurea]
mean [19]: 2.8429 | Replicate_1 [20]: 4.9936 | Replicate_2 [21]: 0.6922

CC(N)c1cccc(Cl)c1Cl.Cl (racemic)
mean (sheet LOPAC_screen_w_protease, primary screen with protease, mean of two replicates): 2.411 | Replicate_1 (sheet LOPAC_screen_w_protease, primary screen with protease, replicate 1): 4.03 | Replicate_2 (sheet LOPAC_screen_w_protease, primary screen with protease, replicate 2): 0.7923

O=C(O)Cc1c[nH]c2ccc(O)cc12 [5-Hydroxyindolacetic acid]
mean [1]: -0.3702 | Replicate_1 [2]: 1.641 | Replicate_2 [3]: -2.381

NC(=O)c1cnccn1 [Pyrazinecarboxamide]
mean [4]: 0.9233 | Replicate_1 [5]: 1.572 | Replicate_2 [6]: 0.2741

CCN(CC)CCNC(=O)c1cc(S(C)(=O)=O)ccc1OC [Tiapride hydrochloride]
inhibition at 5 µM (sheet LOPAC_screen_w_protease, LOPAC1280 at 5 µM, mean of two replicates, read-out: mean): 1.21% | inhibition at 5 µM (sheet LOPAC_screen_w_protease, LOPAC1280 at 5 µM, replicate 1, read-out: Replicate_1): 1.45% | inhibition at 5 µM (sheet LOPAC_screen_w_protease, LOPAC1280 at 5 µM, replicate 2, read-out: Replicate_2): 0.964%

CCOC(=O)c1ncn2c1CN(C)C(=O)c1cc(F)ccc1-2 [Flumazenil]
inhibition at 5 µM (sheet LOPAC_screen_w_protease, primary screen with protease, compound at 5 µM, mean of two replicates, read-out: mean): 3.1% | inhibition at 5 µM (sheet LOPAC_screen_w_protease, primary screen with protease, compound at 5 µM, replicate 1, read-out: Replicate_1): 5.09% | inhibition at 5 µM (sheet LOPAC_screen_w_protease, primary screen with protease, compound at 5 µM, replicate 2, read-out: Replicate_2): 1.11%

O=C(c1cc(O)c(O)c([N+](=O)[O-])c1)c1ccccc1F [Ro 41-0960]
mean (sheet LOPAC_screen_w_protease, LOPAC1280 primary screen at 5 µM, with protease, mean of two replicates): -0.9763 | Replicate_1 [14]: -1.184 | Replicate_2 [15]: -0.7687

CCNC(=O)N1CCN(CCCC(c2ccc(F)cc2)c2ccc(F)cc2)CC1 [Amperozide hydrochloride]
inhibition at 5 µM [22]: 0.1% | inhibition at 5 µM [23]: 0.58% | inhibition at 5 µM [24]: -0.38%
